Measurements: ChEMBL document CHEMBL1201862, “PubChem BioAssay data set” (2004)
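Grown in 96-well plates, cells were treated for 48 hours with each compound at five concentrations. Insufficient inhibition: endpoint recorded as highest concentration tested. GI50 is the concentration that inhibits growth by half.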 Calls of active or inactive are those of the source. Cut-off read from the data, not from the text of the source: active = GI50 up to about 1.1 µM and inactive = higher.

What was measured:
Experiment in all cases: DTP human tumour cell line panel, 48 h
UO-31 = test system: UO-31
SNB-75 = test system: SNB-75
Hs-578T = test system: Hs-578T
HCT-15 = test system: HCT-15
A549 = test system: A549
SNB-19 = test system: SNB-19
OVCAR-8 = test system: OVCAR-8
SF-539 = test system: SF-539
UACC-62 = test system: UACC-62
OVCAR-4 = test system: OVCAR-4
NCI-H226 = test system: NCI-H226
K562 = test system: K562
OVCAR-3 = test system: OVCAR-3
OVCAR-5 = test system: OVCAR-5
SK-MEL-2 = test system: SK-MEL-2
BT-549 = test system: BT-549
TK-10 = test system: TK-10
SN12C = test system: SN12C
COLO 205 = test system: COLO 205
HOP-92 = test system: HOP-92
EKVX = test system: EKVX
PC-3 = test system: PC-3
RPMI-8226 = test system: RPMI-8226
HCT-116 = test system: HCT-116
U-251 = test system: U-251
MDA-MB-435 = test system: MDA-MB-435
T47D = test system: T47D
SF-268 = test system: SF-268
Malme-3M = test system: Malme-3M
HT-29 = test system: HT-29
SK-MEL-5 = test system: SK-MEL-5
CAKI-1 = test system: CAKI-1
SW-620 = test system: SW-620
DU-145 = test system: DU-145
M14 = test system: M14
MDA-N = test system: MDA-N
SK-MEL-28 = test system: SK-MEL-28
UACC-257 = test system: UACC-257
A498 = test system: A498
MCF7 = test system: MCF7
NCI/ADR-RES = test system: NCI/ADR-RES
SK-OV-3 = test system: SK-OV-3
HL-60 = test system: HL-60
NCI-H460 = test system: NCI-H460
KM12 = test system: KM12
LOX IMVI = test system: LOX IMVI
IGROV-1 = test system: IGROV-1
786-0 = test system: 786-0
HCC 2998 = test system: HCC 2998
MDA-MB-231 = test system: MDA-MB-231
RXF 393 = test system: RXF 393
NCI-H522 = test system: NCI-H522
SR = test system: SR
MOLT-4 = test system: MOLT-4
HOP-62 = test system: HOP-62
CCRF-CEM = test system: CCRF-CEM
SF-295 = test system: SF-295
NCI-H23 = test system: NCI-H23
ACHN = test system: ACHN

Nc1nc(S)c2c(N)n[nH]c2c1C(=O)Nc1ccc(Cl)cc1
GI50 (UO-31): 74 µM (inactive)
GI50 (SNB-75): > 100 µM (inactive)
GI50 (Hs-578T): > 100 µM (inactive)
GI50 (HCT-15): 74.8 µM
GI50 (A549): > 100 µM (inactive)
GI50 (SNB-19): > 100 µM (inactive)
GI50 (OVCAR-8): 32.1 µM (inactive)
GI50 (SF-539): > 100 µM (inactive)
GI50 (UACC-62): 18.4 µM (inactive)
GI50 (OVCAR-4): 64.4 µM (inactive)
GI50 (NCI-H226): > 100 µM (inactive)
GI50 (K562): 91.6 µM (inactive)
GI50 (OVCAR-3): > 100 µM (inactive)
GI50 (OVCAR-5): > 100 µM (inactive)
GI50 (SK-MEL-2): > 100 µM (inactive)
GI50 (BT-549): > 100 µM (inactive)
GI50 (TK-10): > 100 µM (inactive)
GI50 (SN12C): > 100 µM (inactive)
GI50 (COLO 205): > 100 µM (inactive)
GI50 (HOP-92): > 100 µM (inactive)
GI50 (EKVX): > 100 µM (inactive)
GI50 (PC-3): > 100 µM (inactive)
GI50 (RPMI-8226): > 100 µM (inactive)
GI50 (HCT-116): > 100 µM (inactive)
GI50 (U-251): > 100 µM (inactive)
GI50 (MDA-MB-435): 84.5 µM (inactive)
GI50 (T47D): 44.6 µM (inactive)
GI50 (SF-268): > 100 µM (inactive)
GI50 (Malme-3M): > 100 µM (inactive)
GI50 (HT-29): > 100 µM (inactive)
GI50 (SK-MEL-5): > 100 µM (inactive)
GI50 (CAKI-1): 60.3 µM (inactive)
GI50 (SW-620): 29.6 µM (inactive)
GI50 (DU-145): 47 µM (inactive)
GI50 (M14): 45.4 µM (inactive)
GI50 (MDA-N): 89.7 µM (inactive)
GI50 (SK-MEL-28): > 100 µM (inactive)
GI50 (UACC-257): 77.1 µM (inactive)
GI50 (A498): > 100 µM (inactive)
GI50 (MCF7): > 100 µM (inactive)
GI50 (NCI/ADR-RES): > 100 µM (inactive)
GI50 (SK-OV-3): > 100 µM (inactive)
GI50 (HL-60): 21.2 µM (inactive)
GI50 (NCI-H460): 54.1 µM (inactive)
GI50 (KM12): 21.4 µM (inactive)
GI50 (LOX IMVI): 5.41 µM (inactive)
GI50 (IGROV-1): > 100 µM (inactive)
GI50 (786-0): 45.9 µM (inactive)
GI50 (HCC 2998): > 100 µM (inactive)
GI50 (MDA-MB-231): > 100 µM (inactive)
GI50 (RXF 393): > 100 µM (inactive)
GI50 (NCI-H522): 96.4 µM (inactive)
GI50 (SR): 24.3 µM (inactive)
GI50 (MOLT-4): > 100 µM (inactive)

O=S1(=O)c2cnccc2N=C(NCc2cccc3ccccc23)N1c1ccccc1
GI50 (UO-31): > 56.5 µM (inactive)
GI50 (SNB-75): > 100 µM (inactive)
GI50 (Hs-578T): > 73.3 µM (inactive)
GI50 (HCT-15): 50.1 µM
GI50 (A549): > 57.7 µM (inactive)
GI50 (HOP-62): > 100 µM (inactive)
GI50 (CCRF-CEM): 2.51 µM (inactive)
GI50 (SNB-19): > 100 µM (inactive)
GI50 (OVCAR-8): > 93.1 µM (inactive)
GI50 (SF-539): > 100 µM (inactive)
GI50 (UACC-62): > 22.4 µM (inactive)
GI50 (OVCAR-4): > 91.2 µM (inactive)
GI50 (NCI-H226): > 100 µM (inactive)
GI50 (K562): 29.4 µM (inactive)
GI50 (OVCAR-3): > 100 µM (inactive)
GI50 (OVCAR-5): > 100 µM (inactive)
GI50 (BT-549): > 100 µM (inactive)
GI50 (TK-10): 64.9 µM (inactive)
GI50 (SN12C): 27 µM (inactive)
GI50 (COLO 205): > 85.7 µM (inactive)
GI50 (HOP-92): > 41.2 µM (inactive)
GI50 (EKVX): 36.4 µM (inactive)
GI50 (PC-3): 30 µM (inactive)
GI50 (RPMI-8226): 13.6 µM (inactive)
GI50 (HCT-116): 9.35 µM (inactive)
GI50 (U-251): 43.8 µM (inactive)
GI50 (MDA-MB-435): > 100 µM (inactive)
GI50 (T47D): 54.7 µM (inactive)
GI50 (SF-295): 62.8 µM (inactive)
GI50 (SF-268): > 100 µM (inactive)
GI50 (Malme-3M): > 100 µM (inactive)
GI50 (HT-29): > 100 µM (inactive)
GI50 (SK-MEL-5): > 95.9 µM (inactive)
GI50 (CAKI-1): > 100 µM (inactive)
GI50 (SW-620): > 100 µM (inactive)
GI50 (DU-145): > 100 µM (inactive)
GI50 (M14): > 83.9 µM (inactive)
GI50 (MDA-N): 13.2 µM (inactive)
GI50 (SK-MEL-28): > 100 µM (inactive)
GI50 (NCI-H23): 36.2 µM (inactive)
GI50 (UACC-257): > 100 µM (inactive)
GI50 (A498): > 100 µM (inactive)
GI50 (ACHN): 35.9 µM (inactive)
GI50 (MCF7): 36.6 µM (inactive)
GI50 (NCI/ADR-RES): 97.5 µM (inactive)
GI50 (SK-OV-3): > 100 µM (inactive)
GI50 (HL-60): 1.87 µM (inactive)
GI50 (NCI-H460): 60.8 µM (inactive)
GI50 (KM12): > 100 µM (inactive)
GI50 (LOX IMVI): > 96.8 µM (inactive)
GI50 (IGROV-1): > 61.5 µM (inactive)
GI50 (786-0): 15 µM (inactive)
GI50 (HCC 2998): 38.4 µM (inactive)
GI50 (MDA-MB-231): > 43 µM (inactive)
GI50 (RXF 393): > 43.9 µM (inactive)
GI50 (NCI-H522): 30.6 µM (inactive)
GI50 (SR): > 100 µM (inactive)
GI50 (MOLT-4): 12.2 µM (inactive)

CC(C)(C)OC(=O)N(O)CCCn1cnc2c(NC3CC3)ncnc21
GI50 (UO-31): > 100 µM (inactive)
GI50 (SNB-75): 35.1 µM (inactive)
GI50 (Hs-578T): > 100 µM (inactive)
GI50 (HCT-15): > 100 µM
GI50 (A549): > 100 µM (inactive)
GI50 (HOP-62): > 100 µM (inactive)
GI50 (CCRF-CEM): > 100 µM (inactive)
GI50 (SNB-19): > 100 µM (inactive)
GI50 (OVCAR-8): > 100 µM (inactive)
GI50 (SF-539): > 100 µM (inactive)
GI50 (UACC-62): > 100 µM (inactive)
GI50 (OVCAR-4): > 100 µM (inactive)
GI50 (NCI-H226): > 100 µM (inactive)
GI50 (K562): > 100 µM (inactive)
GI50 (OVCAR-3): > 100 µM (inactive)
GI50 (OVCAR-5): > 100 µM (inactive)
GI50 (SK-MEL-2): > 100 µM (inactive)
GI50 (BT-549): > 100 µM (inactive)
GI50 (TK-10): > 100 µM (inactive)
GI50 (SN12C): > 100 µM (inactive)
GI50 (COLO 205): > 100 µM (inactive)
GI50 (HOP-92): > 100 µM (inactive)
GI50 (EKVX): > 100 µM (inactive)
GI50 (PC-3): > 100 µM (inactive)
GI50 (RPMI-8226): > 100 µM (inactive)
GI50 (HCT-116): > 100 µM (inactive)
GI50 (U-251): > 100 µM (inactive)
GI50 (MDA-MB-435): > 100 µM (inactive)
GI50 (T47D): > 100 µM (inactive)
GI50 (SF-295): > 100 µM (inactive)
GI50 (SF-268): > 100 µM (inactive)
GI50 (Malme-3M): > 100 µM (inactive)
GI50 (HT-29): > 100 µM (inactive)
GI50 (SK-MEL-5): > 100 µM (inactive)
GI50 (CAKI-1): > 100 µM (inactive)
GI50 (SW-620): > 100 µM (inactive)
GI50 (DU-145): > 100 µM (inactive)
GI50 (M14): > 100 µM (inactive)
GI50 (MDA-N): > 100 µM (inactive)
GI50 (SK-MEL-28): > 100 µM (inactive)
GI50 (NCI-H23): > 100 µM (inactive)
GI50 (UACC-257): > 100 µM (inactive)
GI50 (A498): > 100 µM (inactive)
GI50 (ACHN): > 100 µM (inactive)
GI50 (MCF7): > 100 µM (inactive)
GI50 (NCI/ADR-RES): > 100 µM (inactive)
GI50 (SK-OV-3): > 100 µM (inactive)
GI50 (NCI-H460): > 100 µM (inactive)
GI50 (KM12): > 100 µM (inactive)
GI50 (LOX IMVI): > 100 µM (inactive)
GI50 (IGROV-1): 75.3 µM (inactive)
GI50 (786-0): > 100 µM (inactive)
GI50 (HCC 2998): > 100 µM (inactive)
GI50 (MDA-MB-231): > 100 µM (inactive)
GI50 (RXF 393): > 100 µM (inactive)
GI50 (NCI-H522): > 100 µM (inactive)
GI50 (SR): > 100 µM (inactive)
GI50 (MOLT-4): > 100 µM (inactive)
